{
  "source": "PubChem BioAssay AID602210",
  "about": "(Sanford-Burnham Center for Chemical Genomics, 2012)",
  "note": "The source made the active and inactive calls. No rule for the calls is given here.",
  "data": [
    {"assay": "H9c2 cardiomyoblast viability modulators under 2-DG – cell-based, ATPlite luminescence, rat, set 2, myocardial damage modulator project, dose response (AID 602210)", "conditions": "H9c2 rat cardiomyoblasts, 2-deoxyglucose-induced death, 2 h", "values": [
      {"smiles": "COc1ccc(-c2csc(NC(=O)CCCc3nc4ccccc4c(=O)[nH]3)n2)cc1OC", "IC50": "23.3 µM (inactive)"},
      {"smiles": "Cc1nn(-c2ccccc2)c(N2CCCC2)c1/C=N/NC(=O)c1cc(-c2ccccn2)nc2ccccc12", "IC50": "12.6 µM (inactive)"},
      {"smiles": "COC(=O)c1[nH]c2cc(OC)c(OC)cc2c1/C=N/Nc1ccccc1", "IC50": "> 79 µM (inactive)"},
      {"smiles": "CCOC(=O)c1cnc(Nc2nc3ccccc3o2)nc1CSc1nnc(C)s1", "IC50": "27.3 µM (inactive)"},
      {"smiles": "O=C(NCCN1CCOCC1)c1cnn2c(-c3ccccc3)cc(-c3ccccc3)nc12", "IC50": "30.8 µM (inactive)"},
      {"smiles": "Nc1cc2[nH]c(=O)c3ccccc3c2cc1[N+](=O)[O-]", "IC50": "24.4 µM (inactive)"},
      {"smiles": "COc1ccc(-c2cc(NC=O)c3ncc(-c4ccccc4)n3c2)cc1OC", "IC50": "> 79 µM (inactive)"},
      {"smiles": "COc1cc(-c2cc(C(=O)N3CCN(c4ccccn4)CC3)c3ccccc3n2)cc(OC)c1OC", "IC50": "26.2 µM (inactive)"},
      {"smiles": "COc1ccc(CCNC(=O)C(=O)NCC2CCCN2S(=O)(=O)c2ccccc2)cc1OC", "note": "(centres undefined)", "IC50": "15.4 µM (inactive)"},
      {"smiles": "CCOc1ccc(CCNC(=O)c2cc3c(C)nccc3[nH]c2=O)cc1OCC", "IC50": "8.64 µM"},
      {"smiles": "CC(=NO)C1CCC2C3CCC4CC(=NO)CCC4(C)C3C(C)(O)CC12C", "note": "(centres undefined)", "IC50": "22 µM (inactive)"},
      {"smiles": "O=C(Nc1nc(-c2cc(F)ccc2F)cs1)C1=NN(c2ccccc2)C(=O)CC1", "IC50": "14.2 µM (inactive)"},
      {"smiles": "COc1ccc(-c2ccc3c(c2)S(=O)(=O)c2cccc(C(=O)NC[C@@H]4CCCO4)c2C3=O)cc1OC", "IC50": "13.4 µM (inactive)"},
      {"smiles": "COc1cc(/C=C(\\C#N)C(=O)Nc2ccccc2)ccc1OCCN1CCOCC1", "IC50": "> 79 µM (inactive)"},
      {"smiles": "CCCc1cc(N2CCN(C(=O)c3ccco3)CC2)n2c(nc3ccccc32)c1C#N", "IC50": "26.3 µM (inactive)"},
      {"smiles": "COc1cc(CN2C[C@@H](CO)O[C@@H](n3cnc4c(Nc5ccccc5)ncnc43)C2)cc(OC)c1OC", "IC50": "17.5 µM (inactive)"},
      {"smiles": "CC1(c2ccccc2)NC(=O)N(CC(=O)Nc2cccc(/C=C/c3ccccn3)c2)C1=O", "note": "(centres undefined)", "IC50": "21.8 µM (inactive)"},
      {"smiles": "Cc1ccc(C(C(=O)NCc2ccccc2)N(Cc2ccco2)C(=O)c2snc(C(N)=O)c2N)o1", "note": "(centres undefined)", "IC50": "8.59 µM"},
      {"smiles": "COc1cc(C(=O)N/N=C/c2ccc(OC(=O)c3cccc(C)c3)c(OC)c2)ccc1O", "IC50": "14.2 µM (inactive)"},
      {"smiles": "COCCn1c(=NC(=O)c2nc3ccccc3s2)sc2cc(S(C)(=O)=O)ccc21", "IC50": "> 79 µM (inactive)"},
      {"smiles": "COc1ccc2oc(C(=O)Nc3ccc(N4CCOCC4)cc3)c(C)c2c1", "IC50": "> 79 µM (inactive)"},
      {"smiles": "CS(=O)(=O)c1ccc(-c2cnc3c(NC=O)cc(-c4ccsc4)cn23)cc1", "IC50": "23 µM (inactive)"},
      {"smiles": "COC(=O)c1ccc(C(NC(=O)OCc2ccccc2)/C(C)=C/[C@@H](C)C(=O)NCc2ccc(OC)c(OC)c2)cc1", "note": "(some centres undefined)", "IC50": "23.8 µM (inactive)"},
      {"smiles": "COc1ccc(-c2cc(NC=O)c3ncc(-c4cccc(C(C)=O)c4)n3c2)cc1", "IC50": "> 79 µM (inactive)"},
      {"smiles": "COc1cc2c(C#CCCO)c(-c3ccsc3)oc(=O)c2cc1OC", "IC50": "6.34 µM"},
      {"smiles": "CCN(CC)S(=O)(=O)c1ccc(Nc2nc3ccccc3n3nnnc23)cc1", "IC50": "7.9 µM"},
      {"smiles": "COc1cc(C(=O)N/N=C/c2sc(N3CCOCC3)nc2-c2ccccc2)cc(OC)c1OC", "IC50": "30.9 µM (inactive)"},
      {"smiles": "COc1ccc(Cl)cc1-c1nc(-c2ccc(NC(=O)c3cccs3)cc2)no1", "IC50": "> 79 µM (inactive)"},
      {"smiles": "O=c1[nH]c(CSc2nnc(-c3cccnc3)n2C2CCCCC2)nc2ccccc12", "IC50": "> 79 µM (inactive)"},
      {"smiles": "N#Cc1ccccc1S(=O)(=O)N1CCN(c2nc(-c3cccnc3)nc3ccccc23)CC1", "IC50": "8.75 µM"},
      {"smiles": "C=CC[C@@H](CC(=O)N[C@H](CO)Cc1ccccc1)C(=O)N[C@@H](COC(=O)[C@@H](CC=C)CC(=O)OC(C)(C)C)Cc1ccccc1", "IC50": "45.4 µM (inactive)"},
      {"smiles": "CCOC(=O)c1nn(-c2cccc(OC)c2)c2nc(Nc3ccccc3)cc(=O)n12", "IC50": "> 79 µM (inactive)"},
      {"smiles": "CN(C)S(=O)(=O)n1cc(/C=C(\\NC(=O)c2ccccc2F)C(=O)NCCN2CCOCC2)c2ccccc21", "IC50": "> 79 µM (inactive)"},
      {"smiles": "CCOc1ccc(-n2cc(-c3ccccc3)c3c(N4CCOCC4)ncnc32)cc1", "IC50": "10.3 µM (inactive)"},
      {"smiles": "COc1cc(C(=O)N/N=C/c2ccc(OC(=O)c3ccccc3Cl)cc2)ccc1O", "IC50": "> 79 µM (inactive)"},
      {"smiles": "COc1cc(OC)c(-c2nn3c(-c4ccco4)nnc3s2)cc1OC", "IC50": "9.15 µM"},
      {"smiles": "O=C(CN1C(=O)C2CC=CCC2C1=O)Nc1nc(-c2ccc(F)cc2)cs1", "note": "(centres undefined)", "IC50": "> 79 µM (inactive)"},
      {"smiles": "Cc1cc(N)n(-c2nc(-c3cccnc3)nc3ccccc23)n1", "IC50": "26.1 µM (inactive)"},
      {"smiles": "Cc1ccc(NC(=O)c2cc(=O)c3ccccc3o2)cc1S(=O)(=O)N1CCOCC1", "IC50": "29.6 µM (inactive)"},
      {"smiles": "O=C(c1cc(-c2cccnc2)nc2ccc(Br)cc12)N1CCN(c2ncccn2)CC1", "IC50": "16.2 µM (inactive)"},
      {"smiles": "CC1(C)Cc2c(c(N3CCOCC3)nc3sc4c(NN)ncnc4c23)CS1", "IC50": "> 79 µM (inactive)"},
      {"smiles": "COc1cc2c(cc1OC)CN(c1nc(-c3cccnc3)nc3ccccc13)CC2", "IC50": "6.71 µM"},
      {"smiles": "COc1cccc(NC(=O)c2oc3ccc(S(=O)(=O)N4CCOCC4)cc3c2C)c1", "IC50": "19.5 µM (inactive)"},
      {"smiles": "Cn1c(=O)[nH]c(=O)c2c1nc(N(CCO)Cc1ccccc1)n2CCCc1ccccc1", "IC50": "> 79 µM (inactive)"},
      {"smiles": "CCOC(=O)c1c(C)[nH]c(O)c1C=Nc1ccc(Cl)cc1", "IC50": "46.7 µM (inactive)"},
      {"smiles": "Cc1cc(C)c(C)c(S(=O)(=O)N2CCN(C(=O)c3cc(=O)[nH]c4ccccc34)CC2)c1C", "IC50": "5.01 µM"},
      {"smiles": "COc1ccc(/C=C/C(=O)c2ccccc2O)cc1CN1CCOCC1", "IC50": "25.7 µM (inactive)"},
      {"smiles": "COc1cc(/C=N/NC(=O)c2cccnc2)ccc1OS(=O)(=O)c1ccc(F)cc1", "IC50": "21.2 µM (inactive)"},
      {"smiles": "NC(=O)c1oc2ccccc2c1NC(=O)c1ccco1", "IC50": "32.2 µM (inactive)"},
      {"smiles": "Cn1c(=O)n(CCc2ccccc2)c(=O)c2c1nc1n2CCN1Cc1ccco1", "IC50": "19.3 µM (inactive)"},
      {"smiles": "NC(=O)c1nsc(C(=O)N(c2ccccc2)C(C(=O)NCc2ccc(F)cc2)c2ccc(O)cc2)c1N", "note": "(centres undefined)", "IC50": "9.29 µM"},
      {"smiles": "C[C@H](CO)N1C[C@H](C)[C@@H](CN(C)S(=O)(=O)c2cccs2)Oc2ccc(NC(=O)Nc3ccccc3)cc2C1=O", "IC50": "> 79 µM (inactive)"},
      {"smiles": "Cc1cccc(NC(=O)c2nc[nH]c2C(=O)NCCCCCCNC(=O)c2[nH]cnc2C(=O)Nc2cccc(C)c2)c1", "IC50": "> 79 µM (inactive)"},
      {"smiles": "COc1ccc(CCNc2nc(-c3cccnc3)nc3ccccc23)cc1OC", "IC50": "8.24 µM"},
      {"smiles": "COc1cc(-c2cc(C(=O)NCc3ccco3)c3ccccc3n2)cc(OC)c1OC", "IC50": "16.4 µM (inactive)"},
      {"smiles": "O=C(NCC(=O)N(Cc1cccs1)C(C(=O)NC1CCCC1)c1ccco1)c1cccs1", "note": "(centres undefined)", "IC50": "24.5 µM (inactive)"},
      {"smiles": "Cn1c(-n2c(CCCN3C(=O)c4ccccc4C3=O)nc3ccccc3c2=O)nc2ccccc21", "IC50": "> 79 µM (inactive)"},
      {"smiles": "COc1ccccc1CN(C(=O)CNC(=O)c1ccco1)C(C(=O)NCC1CCCO1)c1ccccc1", "note": "(centres undefined)", "IC50": "9.47 µM"},
      {"smiles": "O=C(Nc1ccc2nc(N3CCOCC3)sc2c1)c1cc2ccccc2o1", "IC50": "> 79 µM (inactive)"},
      {"smiles": "CC(C)CC(C(=O)NC1CCCCC1)N(Cc1cccs1)C(=O)c1snc(C(N)=O)c1N", "note": "(centres undefined)", "IC50": "29.3 µM (inactive)"},
      {"smiles": "CCN1C(=O)/C(=C/c2nc3ccccc3c(=O)[nH]2)c2ccccc21", "IC50": "27.9 µM (inactive)"},
      {"smiles": "COc1ccc(C(C(=O)NCc2ccccc2)N(Cc2cccs2)C(=O)c2cnccn2)cc1", "note": "(centres undefined)", "IC50": "23 µM (inactive)"},
      {"smiles": "CC(C)OCCCNC(=O)CCC(=O)NNc1nc2ccccc2c2nc(-c3ccccc3)nn12", "IC50": "22.2 µM (inactive)"},
      {"smiles": "O=C(O)c1ccc2c(c1)S(=O)(=O)c1cc(N3CCN(c4cnccn4)CC3)ccc1C2=O", "IC50": "18.6 µM (inactive)"}
    ]}
  ]
}
